Data on three compounds can be found in patent US6958156B2, “Isoflavone derivatives” (Vyrex Corporation, priority 2000, dated 2005).

Molecules are shown by their SMILES.

What is called half-life is the time needed for the level to fall by half in the phase considered.

A short description of series [1]: Non-enzymatic hydrolysis of genistein esters in aqueous buffer (HPLC). In kind it is physicochemical. The settings on record: phosphate-buffered saline (0.1 M), pH 7.4, 37°, 10 days. The source says: By way of example, and not of limitation, several embodiments of the inventive subject matter have been prepared and characterized. These examples all fall within the group of pro-compounds where at least one of R7, R6, R5 and R4′ is H2PO4—, and HOOC—(CH2)x-COO— where x=2, 3, or 4. These new phosphate esters and hemiesters are all water soluble and readily hydrolyzed. They are also stable. In aqueous solutions of the exemplified compounds, for example, hydrolysis occurs to the extent of less than 1% per day, when stored at pH 7.4 and 37° C. Dry formulations of the same compounds appear to be indefinitely stable.
HPLC analysis was conducted using a Partisil ODS-3 column (9.5×250 mm), with methanol as the mobile phase, and UV detection at 260 nm.
A solution of genistein-7-phosphate (2.5 mg) in 5 ml of phosphate-buffered saline (0.1 M) at pH 7.4 was incubated at 37° for 10 days.
A solution of genistein-7-hemisuccinate (2.5 mg) in 5 ml of phosphate-buffered saline (0.1 M) at pH 7.4 was incubated at 37° for 10 days.

Series [2] is described as follows: Hydrolysis of genistein-7-phosphate to free genistein in human serum. In kind it is in vitro ADME. The settings on record: 37° C. The method, then:
(§1) In each of these experiments, free genistein was extracted with a 1:1 mixture of ethyl acetate and hexane, then analyzed by HPLC under the conditions described in example 5.
a) In human serum (Sierra Biologicals) at 37° C., the half-life for hydrolysis to free genistein was about 5 hours.

Series [3] can be described thus: Hydrolysis of genistein-7-phosphate to free genistein in human blood. The series is classed as in vitro ADME. Conditions: 37° C. On the procedure:
as §1
b) In human blood (Sierra Biologicals) at 37° C., the half-life for hydrolysis to free genistein was about 6 hours.

The nature of series [4]: Hydrolysis of genistein-7-phosphate to free genistein in rat blood. The settings on record: 37° C. In kind it is in vitro ADME. On the procedure:
as §1
c) In rat blood (Sierra Biologicals) at 37° C., the half-life for hydrolysis to free genistein was about 30 minutes.

The test system of series [5] is alkaline phosphatase type VII-S. Description: Hydrolysis by alkaline phosphatase type VII-S. In kind it is biochemical, bovine. The settings on record: 37° C., 0.5 DEA units in 1.0 ml 0.1M glycine buffer pH 10.4, initial substrate 1.07 mM. On the procedure:
as §1
d) In alkaline phosphatase type VII-S at 37° C., the initial rate of hydrolysis to free genistein was 0.08% per minute.
This enzyme from bovine intestinal mucosa (Sigma cat no. P5521). 0.5 DEA units were dissolved in 1.0 ml of 0.1M glycine buffer pH 10.4, and the initial substrate concentration was 1.07 mM.

Series [6] concerns the target alkaline phosphatase type XXIV (Homo sapiens, UniProt P05187). The experiment in a line: Hydrolysis by alkaline phosphatase type XXIV. The settings on record: 37° C. The series is classed as biochemical. On the procedure:
as §1
e) In alkaline phosphatase type XXIV at 37° C., the initial rate of hydrolysis to free genistein was 0.05% per minute.

The conditions of series [7]: Merck Index descriptions; cited from earlier work.

Chain of alkaline phosphatase type XXIV (P05187 23-506): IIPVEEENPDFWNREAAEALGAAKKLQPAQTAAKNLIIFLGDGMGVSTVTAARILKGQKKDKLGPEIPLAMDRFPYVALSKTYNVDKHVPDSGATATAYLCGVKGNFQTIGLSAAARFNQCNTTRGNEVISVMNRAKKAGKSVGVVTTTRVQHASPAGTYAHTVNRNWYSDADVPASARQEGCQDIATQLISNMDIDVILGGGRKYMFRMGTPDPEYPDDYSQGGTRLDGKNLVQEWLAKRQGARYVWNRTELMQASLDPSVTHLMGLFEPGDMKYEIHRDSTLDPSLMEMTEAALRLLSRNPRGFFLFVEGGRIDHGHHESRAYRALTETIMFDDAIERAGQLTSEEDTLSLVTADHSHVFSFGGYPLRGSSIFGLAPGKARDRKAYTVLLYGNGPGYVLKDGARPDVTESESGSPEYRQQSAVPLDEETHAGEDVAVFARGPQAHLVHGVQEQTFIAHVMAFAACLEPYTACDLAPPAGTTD

As for `O=C(O)CCC(=O)Oc1cc(O)c2c(=O)c(-c3ccc(O)cc3)coc2c1` [genistein-7-hemisuccinate, Genistein-7-Hemisuccinate], the “conversion of the ester to free genistein” value in series [1] was “about 4%”.
Take `O=c1c(-c2ccc(O)cc2)coc2cc(OP(=O)(O)O)cc(O)c12` [genistein-7-phosphate, Genistein-7-Phosphate]: the “free genistein found by HPLC after incubation” value in series [1] is given as “absence of free genistein”. Moreover, the half-life was about 5 h in series [2], about 6 h in series [3] and about 0.5 h in series [4]. Besides, the “initial rate of hydrolysis to free genistein” value in series [5] is 0.08 % per minute; in series [6] it was 0.05 % per minute.
As for `O=c1c(-c2ccc(O)cc2)coc2cc(O)cc(O)c12` [genistein], the solubility in water result in series [7] was “very insoluble”.
